BindingDB's records for patent US10196390 (Nimbus Lakshmi, Inc., 2019)

Biological target: Tyrosine-protein kinase JAK2 (Homo sapiens, UniProt O60674)
Sequence (O60674 whole entry): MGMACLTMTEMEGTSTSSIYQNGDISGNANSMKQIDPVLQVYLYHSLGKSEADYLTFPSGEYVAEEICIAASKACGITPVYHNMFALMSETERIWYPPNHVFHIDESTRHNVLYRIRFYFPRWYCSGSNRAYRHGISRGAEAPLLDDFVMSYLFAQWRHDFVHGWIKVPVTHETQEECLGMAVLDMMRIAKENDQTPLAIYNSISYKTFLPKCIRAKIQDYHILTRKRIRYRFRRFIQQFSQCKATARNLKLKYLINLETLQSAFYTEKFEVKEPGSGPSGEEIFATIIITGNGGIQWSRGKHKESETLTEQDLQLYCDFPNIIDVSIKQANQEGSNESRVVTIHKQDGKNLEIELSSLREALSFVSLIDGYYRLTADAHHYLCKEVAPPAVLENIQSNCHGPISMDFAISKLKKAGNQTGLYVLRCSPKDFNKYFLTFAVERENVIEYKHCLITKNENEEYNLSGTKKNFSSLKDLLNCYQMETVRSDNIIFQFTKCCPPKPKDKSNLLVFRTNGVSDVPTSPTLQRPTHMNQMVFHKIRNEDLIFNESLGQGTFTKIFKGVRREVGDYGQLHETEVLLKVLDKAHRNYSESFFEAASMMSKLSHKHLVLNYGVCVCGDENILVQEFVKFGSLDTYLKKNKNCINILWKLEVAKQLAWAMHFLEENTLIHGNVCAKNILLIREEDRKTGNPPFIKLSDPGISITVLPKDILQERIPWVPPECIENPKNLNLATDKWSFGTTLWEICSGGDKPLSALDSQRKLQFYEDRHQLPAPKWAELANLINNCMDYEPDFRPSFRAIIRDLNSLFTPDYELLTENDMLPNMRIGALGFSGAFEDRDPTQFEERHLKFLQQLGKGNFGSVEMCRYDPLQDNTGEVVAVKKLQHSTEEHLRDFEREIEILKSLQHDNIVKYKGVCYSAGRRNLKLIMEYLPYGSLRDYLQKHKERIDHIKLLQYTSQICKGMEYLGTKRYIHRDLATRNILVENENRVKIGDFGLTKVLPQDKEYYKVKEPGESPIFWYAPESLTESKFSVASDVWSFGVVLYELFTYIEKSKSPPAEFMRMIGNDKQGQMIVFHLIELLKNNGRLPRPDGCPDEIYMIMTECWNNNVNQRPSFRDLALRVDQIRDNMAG

| SMILES | Ki [nM] |
| --- | --- |
| CCNC(=O)Cc1ncc(Nc2nc(-c3c(F)cccc3F)nc3c2C(=O)NC3)cn1 [US10196390, Compound I-169] | > 1000 |
| Cc1ccc(Nc2nc(-c3c(F)cccc3F)nc3c2C(=O)NC3)cc1F [US10196390, Compound I-292] | > 1000 |
| O=C1NCc2nc(-c3c(F)cccc3F)cc(Nc3ccc(N4CCC5(CC5)C4)cn3)c21 [US10196390, Compound I-233] | > 1000 |
| Cc1ccc(Nc2nc(-c3c(F)cccc3F)nc3c2C(=O)NC3)cc1 [US10196390, Compound I-21] | > 1000 |
| O=C1NCc2nc(-c3c(F)cccc3F)nc(Nc3ccc(OC(F)(F)F)cc3)c21 [US10196390, Compound I-184] | > 1000 |
| O=C1NCc2nc(-c3c(F)cccc3F)nc(Nc3ccc(S(=O)(=O)C(F)(F)F)cc3)c21 [US10196390, Compound I-236] | > 1000 |
| COC(=O)Cc1ncc(Nc2nc(-c3c(F)cccc3F)nc3c2C(=O)NC3)cn1 [US10196390, Compound I-166] | > 1000 |
| O=C1NCc2nc(-c3c(F)cccc3F)cc(Nc3ccc(NS(=O)(=O)C(F)F)cn3)c21 [US10196390, Compound I-277] | < 10 |
| C[C@@H]1COC[C@@H](C)N1C(=O)c1ccc(Nc2cc(-c3c(F)cccc3F)nc3c2C(=O)NC3)cc1 [US10196390, Compound I-285] | < 10 |
| O=C1NCc2nc(-c3c(F)cccc3F)nc(Nc3ccc(C4CCCCC4)cc3)c21 [US10196390, Compound I-197] | > 1000 |
| O=C1NCc2nc(-c3c(F)cccc3F)cc(Nc3ccc(N4CCCC4)cn3)c21 [US10196390, Compound I-205] | > 1000 |
| C[C@H]1COC[C@H](C)N1c1ccc(Nc2cc(-c3c(F)cccc3F)nc3c2C(=O)NC3)nc1 [US10196390, Compound I-264] | < 10 |
| O=C1NCc2nc(-c3c(F)cccc3F)cc(Nc3ccc(C(=O)N4CCC(F)(F)CC4)cc3)c21 [US10196390, Compound I-283] | < 10 |

Continued, values first:

| Ki [nM] | SMILES |
| --- | --- |
| < 10 | CC1(C)CCC(=O)N1c1ccc(Nc2cc(-c3c(F)cccc3F)nc3c2C(=O)NC3)nc1 [US10196390, Compound I-272] |
| < 10 | O=C1NCc2nc(-c3c(F)cccc3F)cc(Nc3ccc(F)cn3)c21 [US10196390, Compound I-234] |
| < 10 | COc1ccc(Nc2cc(-c3c(F)cccc3C#N)nc3c2C(=O)NC3)nc1 [US10196390, Compound I-258] |
| < 10 | CC(C)(C)Nc1ccc(Nc2cc(-c3c(F)cccc3F)nc3c2C(=O)NC3)nc1 [US10196390, Compound I-278] |
| < 10 | CN(c1ccc(Nc2cc(-c3c(F)cccc3F)nc3c2C(=O)NC3)nc1)C(C)(C)C [US10196390, Compound I-274] |
| < 10 | CCN(CC)C(=O)c1ccc(Nc2cc(-c3c(F)cccc3F)nc3c2C(=O)NC3)cc1 [US10196390, Compound I-259] |
| < 10 | CC(C)N1CCN(c2ccc(Nc3cc(-c4c(F)cccc4F)nc4c3C(=O)NC4)nc2)CC1 [US10196390, Compound I-256] |
| < 10 | CCNC(=O)c1ccc(Nc2cc(-c3c(F)cccc3C#N)nc3c2C(=O)NC3)nc1 [US10196390, Compound I-282] |
| < 10 | N#Cc1cccc(F)c1-c1cc(Nc2ccc(C(=O)N3CCOCC3)cc2)c2c(n1)CNC2=O [US10196390, Compound I-287] |
| < 10 | CC1CC(O)CC(C)N1c1ccc(Nc2cc(-c3c(F)cccc3F)nc3c2C(=O)NC3)nc1 (stereo not drawn) [US10196390, Compound I-288] |
